Tests used:
Assay in all cases: relative viability (nuclei count vs DMSO), 5 days (fraction); higher = more cells survive
[1] = system: EPLC-272H
Summary of the method: (§1)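 Lung cancer cell lines in 1536-well plates got either a single drug or a fixed anchor-drug dose together with five library-drug doses (not always all listed) in √10 steps, by pin tool, on the day after seeding. Nuclei were counted after 5 days, and relative viability is the treated-to-vehicle ratio of nuclei counts. Values are medians of duplicate plates.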

[2] = system: NCI-H1975
Summary of the method: as §1

[3] = system: NCI-H2085
Summary of the method: as §1

[4] = system: NCI-H2023
Summary of the method: as §1

[5] = system: HARA
Summary of the method: as §1

[6] = system: HCC-366
Summary of the method: as §1

[7] = system: UMC-11
Summary of the method: as §1

[8] = system: NCI-H1437
Summary of the method: as §1

[9] = system: NCI-H727
Summary of the method: as §1

[10] = system: HCC-15
Summary of the method: as §1

[11] = system: NCI-H1395
Summary of the method: as §1

[12] = system: HCC-78
Summary of the method: as §1

[13] = system: SK-LU-1
Summary of the method: as §1

[14] = system: HCC-827
Summary of the method: as §1

[15] = system: NCI-H2405
Summary of the method: as §1

[16] = system: COR-L23
Summary of the method: as §1

[17] = system: NCI-H1792
Summary of the method: as §1

[18] = system: NCI-H1944
Summary of the method: as §1

[19] = system: HCC-44
Summary of the method: as §1

[20] = system: COR-L 105
Summary of the method: as §1

[21] = system: NCI-H661
Summary of the method: as §1

[22] = system: NCI-H358
Summary of the method: as §1

## O=c1[nH]c2ccccc2n1C1CCN(CCCC(c2ccc(F)cc2)c2ccc(F)cc2)CC1 [Pimozide] + CS(=O)(=O)CCNCc1ccc(-c2ccc3ncnc(Nc4ccc(OCc5cccc(F)c5)c(Cl)c4)c3c2)o1 [Lapatinib] (partner 2 µM)
[1]; first compound 0.08 µM
  relative viability: 0.819
[1]; first compound 0.253 µM
  relative viability: 0.945
[1]; first compound 0.8 µM
  relative viability: 0.716
[1]; first compound 2.53 µM
  relative viability: 0.809
[1]; first compound 8 µM
  relative viability: 0.689
[2]; first compound 0.08 µM
  relative viability: 0.928
[2]; first compound 0.253 µM
  relative viability: 0.848
[2]; first compound 0.8 µM
  relative viability: 0.945
[2]; first compound 2.53 µM
  relative viability: 0.897
[2]; first compound 8 µM
  relative viability: 0.751
[3]; first compound 0.08 µM
  relative viability: 0.786
[3]; first compound 0.253 µM
  relative viability: 0.711
[3]; first compound 0.8 µM
  relative viability: 0.704
[3]; first compound 2.53 µM
  relative viability: 0.704
[3]; first compound 8 µM
  relative viability: 0.698
[4]; first compound 0.08 µM
  relative viability: 0.793
[4]; first compound 0.253 µM
  relative viability: 0.964
[4]; first compound 0.8 µM
  relative viability: 0.592
[4]; first compound 2.53 µM
  relative viability: 0.729
[4]; first compound 8 µM
  relative viability: 0.412
[5]; first compound 0.08 µM
  relative viability: 0.765
[5]; first compound 0.253 µM
  relative viability: 0.963
[5]; first compound 0.8 µM
  relative viability: 0.755
[5]; first compound 2.53 µM
  relative viability: 0.776
[5]; first compound 8 µM
  relative viability: 0.561
[6]; first compound 0.08 µM
  relative viability: 0.971
[6]; first compound 0.253 µM
  relative viability: 1.02
[6]; first compound 0.8 µM
  relative viability: 0.988
[6]; first compound 2.53 µM
  relative viability: 1.01
[6]; first compound 8 µM
  relative viability: 1.06
[7]; first compound 0.08 µM
  relative viability: 1.07
[7]; first compound 0.253 µM
  relative viability: 0.957
[7]; first compound 0.8 µM
  relative viability: 0.821
[7]; first compound 2.53 µM
  relative viability: 0.934
[7]; first compound 8 µM
  relative viability: 0.56
[8]; first compound 0.08 µM
  relative viability: 0.858
[8]; first compound 0.253 µM
  relative viability: 0.849
[8]; first compound 0.8 µM
  relative viability: 0.801
[8]; first compound 2.53 µM
  relative viability: 0.636
[8]; first compound 8 µM
  relative viability: 0.539
[9]; first compound 0.08 µM
  relative viability: 0.8
[9]; first compound 0.253 µM
  relative viability: 0.922
[9]; first compound 0.8 µM
  relative viability: 0.85
[9]; first compound 2.53 µM
  relative viability: 0.754
[9]; first compound 8 µM
  relative viability: 0.769
[10]; first compound 0.08 µM
  relative viability: 0.857
[10]; first compound 0.253 µM
  relative viability: 0.889
[10]; first compound 0.8 µM
  relative viability: 0.701
[10]; first compound 2.53 µM
  relative viability: 0.791
[10]; first compound 8 µM
  relative viability: 0.777
[11]; first compound 0.08 µM
  relative viability: 0.966
[11]; first compound 0.253 µM
  relative viability: 1.17
[11]; first compound 0.8 µM
  relative viability: 1.06
[11]; first compound 2.53 µM
  relative viability: 0.756
[11]; first compound 8 µM
  relative viability: 0.838
[12]; first compound 0.08 µM
  relative viability: 0.484
[12]; first compound 0.253 µM
  relative viability: 0.831
[12]; first compound 0.8 µM
  relative viability: 0.54
[12]; first compound 2.53 µM
  relative viability: 0.608
[12]; first compound 8 µM
  relative viability: 0.889
[13]; first compound 0.08 µM
  relative viability: 0.773
[13]; first compound 0.253 µM
  relative viability: 0.846
[13]; first compound 0.8 µM
  relative viability: 0.859
[13]; first compound 2.53 µM
  relative viability: 0.826
[13]; first compound 8 µM
  relative viability: 0.731
[14]; first compound 0.253 µM
  relative viability: 0.205
[14]; first compound 0.8 µM
  relative viability: 0.189
[14]; first compound 2.53 µM
  relative viability: 0.179
[14]; first compound 8 µM
  relative viability: 0.194
[15]; first compound 0.08 µM
  relative viability: 1.02
[15]; first compound 0.253 µM
  relative viability: 0.833
[15]; first compound 0.8 µM
  relative viability: 0.984
[15]; first compound 2.53 µM
  relative viability: 1.04
[15]; first compound 8 µM
  relative viability: 0.79
[16]; first compound 0.08 µM
  relative viability: 0.99
[16]; first compound 0.253 µM
  relative viability: 0.856
[16]; first compound 0.8 µM
  relative viability: 0.881
[16]; first compound 2.53 µM
  relative viability: 0.914
[16]; first compound 8 µM
  relative viability: 0.862
[17]; first compound 0.08 µM
  relative viability: 0.888
[17]; first compound 0.253 µM
  relative viability: 0.784
[17]; first compound 0.8 µM
  relative viability: 0.83
[17]; first compound 2.53 µM
  relative viability: 0.846
[17]; first compound 8 µM
  relative viability: 0.869
[18]; first compound 0.08 µM
  relative viability: 0.802
[18]; first compound 0.253 µM
  relative viability: 0.76
[18]; first compound 0.8 µM
  relative viability: 0.62
[18]; first compound 2.53 µM
  relative viability: 0.772
[18]; first compound 8 µM
  relative viability: 0.794
[19]; first compound 0.08 µM
  relative viability: 0.952
[19]; first compound 0.253 µM
  relative viability: 1.08
[19]; first compound 0.8 µM
  relative viability: 0.975
[19]; first compound 2.53 µM
  relative viability: 0.96
[19]; first compound 8 µM
  relative viability: 0.888
[20]; first compound 0.253 µM
  relative viability: 0.395
[20]; first compound 0.8 µM
  relative viability: 0.377
[20]; first compound 2.53 µM
  relative viability: 0.396
[20]; first compound 8 µM
  relative viability: 0.351
[21]; first compound 0.08 µM
  relative viability: 0.46
[21]; first compound 0.253 µM
  relative viability: 0.464
[21]; first compound 0.8 µM
  relative viability: 0.451
[21]; first compound 2.53 µM
  relative viability: 0.413
[21]; first compound 8 µM
  relative viability: 0.467
[22]; first compound 0.08 µM
  relative viability: 0.506
[22]; first compound 0.253 µM
  relative viability: 0.488
[22]; first compound 0.8 µM
  relative viability: 0.433
[22]; first compound 2.53 µM
  relative viability: 0.477
[22]; first compound 8 µM
  relative viability: 0.4

Source: the supplement of paper PMC10307832
